Experimental data from PMC4312132, “Phenylalanine in the Pore of the Erwinia Ligand-Gated Ion Channel Modulates Picrotoxinin Potency but Not Receptor Function” (Biochemistry, 2014).
Where two headings read alike, the source gives them in different places.

What was measured:
Assay type in all cases: cell-based, Erwinia chrysanthemii
[1] = target: T1, Q2′N ELIC (Dickeya chrysanthemi, UniProt P0C7B7, Q232N); test: GABA activation of Q2′N ELIC, two-electrode voltage clamp in Xenopus oocytes
T1 construct: expressed in transfected cells; host or cells: Xenopus laevis oocytes (cRNA injection)

[2] = target: T2, T6′A ELIC (Dickeya chrysanthemi, UniProt P0C7B7, T236A); test: GABA activation of T6′A ELIC, two-electrode voltage clamp in Xenopus oocytes
T2 construct: expressed in transfected cells; host or cells: Xenopus laevis oocytes (cRNA injection)

[3] = target: T3, T6′S ELIC (Dickeya chrysanthemi, UniProt P0C7B7, T236S); test: GABA activation of T6′S ELIC, two-electrode voltage clamp in Xenopus oocytes
T3 construct: expressed in transfected cells; host or cells: Xenopus laevis oocytes (cRNA injection)

[4] = target: T4, F16′A ELIC (Dickeya chrysanthemi, UniProt P0C7B7, F246A); test: GABA activation of F16′A ELIC, two-electrode voltage clamp in Xenopus oocytes
T4 construct: expressed in transfected cells; host or cells: Xenopus laevis oocytes (cRNA injection)
Experimental: (§1) Xenopus laevis oocyte-positive females were purchased from NASCO (Fort Atkinson, WI) and maintained according to standard methods. Harvested stage V and VI Xenopus oocytes were washed in four changes of Ca^2+-free ND96 [96 mM NaCl, 2 mM KCl, 1 mM MgCl2, and 5 mM HEPES (pH 7.5)], defolliculated in 1.5 mg mL^–1 collagenase type 1A for approximately 2 h, washed again in four changes of ND96, and stored in ND96 at 16 °C containing 2.5 mM sodium pyruvate, […] gentamycin, and 0.7 mM theophylline.
(§2) ELIC (GenBank accession number ADN00343.1) was kindly provided by C. Ulens. For expression in Xenopus oocytes, it was cloned into pGEMHE with the signal sequence of the human α7 nACh receptor. […] Stage V and VI oocytes were injected with 20 ng of cRNA, and currents were recorded 1–3 days postinjection.
(§3) Using two-electrode voltage clamp, Xenopus oocytes were clamped at −60 mV using an OC-725 amplifier (Warner Instruments, Hamden, CT), Digidata 1322A, and the Strathclyde Electrophysiology Software Package (Department of Physiology and Pharmacology, University of Strathclyde, Glasgow, U.K.). Currents were recorded at 5 kHz and filtered at a frequency of 1 kHz. […] Inhibition by test compounds was measured at the GABA EC50 for each mutant. […]

[5] = target: T5, F16′D ELIC (Dickeya chrysanthemi, UniProt P0C7B7, F246D); test: GABA activation of F16′D ELIC, two-electrode voltage clamp in Xenopus oocytes
T5 construct: expressed in transfected cells; host or cells: Xenopus laevis oocytes (cRNA injection)

[6] = target: T6, F16′E ELIC (Dickeya chrysanthemi, UniProt P0C7B7, F246E); test: GABA activation of F16′E ELIC, two-electrode voltage clamp in Xenopus oocytes
T6 construct: expressed in transfected cells; host or cells: Xenopus laevis oocytes (cRNA injection)
Experimental: as §1, §2, §3

[7] = target: T7, F16′Q ELIC (Dickeya chrysanthemi, UniProt P0C7B7, F246Q); test: GABA activation of F16′Q ELIC, two-electrode voltage clamp in Xenopus oocytes
T7 construct: expressed in transfected cells; host or cells: Xenopus laevis oocytes (cRNA injection)

[8] = target: T8, F16′L ELIC (Dickeya chrysanthemi, UniProt P0C7B7, F246L); test: GABA activation of F16′L ELIC, two-electrode voltage clamp in Xenopus oocytes
T8 construct: expressed in transfected cells; host or cells: Xenopus laevis oocytes (cRNA injection)
Experimental: as §1, §2, §3

[9] = target: T9, F16′S ELIC (Dickeya chrysanthemi, UniProt P0C7B7, F246S); test: GABA activation of F16′S ELIC, two-electrode voltage clamp in Xenopus oocytes
T9 construct: expressed in transfected cells; host or cells: Xenopus laevis oocytes (cRNA injection)

[10] = target: T10, F16′T ELIC (Dickeya chrysanthemi, UniProt P0C7B7, F246T); test: GABA activation of F16′T ELIC, two-electrode voltage clamp in Xenopus oocytes
T10 construct: expressed in transfected cells; host or cells: Xenopus laevis oocytes (cRNA injection)

[11] = target: T11, F16′W ELIC (Dickeya chrysanthemi, UniProt P0C7B7, F246W); test: GABA activation of F16′W ELIC, two-electrode voltage clamp in Xenopus oocytes
T11 construct: expressed in transfected cells; host or cells: Xenopus laevis oocytes (cRNA injection)

[12] = target: T12, F16′Y ELIC (Dickeya chrysanthemi, UniProt P0C7B7, F246Y); test: GABA activation of F16′Y ELIC, two-electrode voltage clamp in Xenopus oocytes
T12 construct: expressed in transfected cells; host or cells: Xenopus laevis oocytes (cRNA injection)

[13] = target: T13, F16′S/T6′S ELIC (Dickeya chrysanthemi, UniProt P0C7B7, F246S/T236S); test: GABA activation of F16′S/T6′S ELIC, two-electrode voltage clamp in Xenopus oocytes
T13 construct: expressed in transfected cells; host or cells: Xenopus laevis oocytes (cRNA injection)

[14] = target: T1, Q2′N ELIC; test: Inhibition of GABA-elicited currents of Q2′N ELIC in Xenopus oocytes
[15] = target: T2, T6′A ELIC; test: Inhibition of GABA-elicited currents of T6′A ELIC in Xenopus oocytes
Experimental: as §1, §2, §3

[16] = target: T3, T6′S ELIC; test: Inhibition of GABA-elicited currents of T6′S ELIC in Xenopus oocytes
[17] = target: T4, F16′A ELIC; test: Inhibition of GABA-elicited currents of F16′A ELIC in Xenopus oocytes; conditions: inhibition measured at the GABA EC50
[18] = target: T5, F16′D ELIC; test: Inhibition of GABA-elicited currents of F16′D ELIC in Xenopus oocytes
Experimental: as §1, §2, §3

[19] = target: T11, F16′W ELIC; test: Inhibition of GABA-elicited currents of F16′W ELIC in Xenopus oocytes
[20] = target: T9, F16′S ELIC; test: Inhibition of GABA-elicited currents of F16′S ELIC in Xenopus oocytes
[21] = target: T10, F16′T ELIC; test: Inhibition of GABA-elicited currents of F16′T ELIC in Xenopus oocytes
[22] = target: T6, F16′E ELIC; test: Inhibition of GABA-elicited currents of F16′E ELIC in Xenopus oocytes
[23] = target: T14, T6′S/F16′S ELIC (Dickeya chrysanthemi, UniProt P0C7B7, F246S/T236S); test: Inhibition of GABA-elicited currents of T6′S/F16′S ELIC in Xenopus oocytes; conditions: inhibition measured at the GABA EC50
T14 construct: expressed in transfected cells; host or cells: Xenopus laevis oocytes injected with cRNA transcribed from pGEMHE
T14 sequence (P0C7B7 1-321 T236S/F246S): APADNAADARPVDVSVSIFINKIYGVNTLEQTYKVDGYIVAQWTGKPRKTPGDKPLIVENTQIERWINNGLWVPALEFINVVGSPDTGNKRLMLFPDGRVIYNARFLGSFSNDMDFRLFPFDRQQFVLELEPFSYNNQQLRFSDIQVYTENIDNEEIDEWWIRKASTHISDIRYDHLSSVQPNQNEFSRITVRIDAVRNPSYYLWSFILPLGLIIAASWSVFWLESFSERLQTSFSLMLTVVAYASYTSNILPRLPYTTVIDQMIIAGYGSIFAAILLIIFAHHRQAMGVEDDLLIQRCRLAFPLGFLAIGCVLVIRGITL

NCCCC(=O)O [GABA, γ-aminobutyric acid]
EC50 [1]: 1820 µM | EC50 ([2]; GABA EC50, T6′A ELIC): 800 µM | EC50 ([2]; GABA pEC50, T6′A ELIC): 851 µM | EC50 [3]: 1780 µM | EC50 [4]: 4900 µM | EC50 [5]: 2090 µM | EC50 ([6]; GABA EC50, F16′E ELIC): 26000 µM | EC50 ([6]; GABA pEC50, F16′E ELIC): 25700 µM | EC50 [7]: 7760 µM | EC50 ([8]; GABA EC50, F16′L ELIC): 51000 µM | EC50 ([8]; GABA pEC50, F16′L ELIC): 51300 µM | EC50 [9]: 7100 µM | EC50 ([10]; GABA EC50, F16′T ELIC): 11000 µM | EC50 ([10]; GABA pEC50, F16′T ELIC): 11500 µM | EC50 [11]: 2290 µM | EC50 [12]: 7500 µM | EC50 [13]: 6400 µM

C=C(C)[C@@H]1[C@H]2OC(=O)[C@@H]1[C@]1(O)C[C@H]3O[C@]34C(=O)O[C@H]2[C@]14C [PXN, Picrotoxinin]
IC50 [14]: 44 µM | IC50 [15]: 95 µM | IC50 [16]: 68 µM | IC50 ([17]; IC50, F16′A ELIC): 16 µM | IC50 ([17]; pIC50, F16′A ELIC): 16.6 µM | IC50 [18]: 9.4 µM | IC50 [19]: 52 µM | IC50 [20]: 4.5 µM | IC50 [21]: 7.2 µM | IC50 [22]: 26.9 µM | IC50 ([23]; IC50, T6′S/F16′S ELIC): 44 µM

CCCC(C(=O)OCCN(CC)CC)(c1ccccc1)c1ccccc1 [proadifen]
IC50 ([16]; T6′S ELIC, inhibition measured at the GABA EC50, read-out: pIC50 (converted)): 2.57 µM | IC50 ([20]; F16′S ELIC, inhibition measured at the GABA EC50, read-out: IC50): 5.1 µM | IC50 ([23]; T6′S/F16′S ELIC, read-out: IC50): 0.9 µM | IC50 ([23]; T6′S/F16′S ELIC, read-out: pIC50 (converted)): 0.933 µM
